This note sets out measurements from article PMC5232348, “Molecular and Functional Characterization of Three Odorant-Binding Protein from Periplaneta americana” (PLoS ONE, 2017).

The structures appear in SMILES notation. Read-outs that look alike come from different tables or passages of the source.

Assay [1] deals with T1, PameOBP1 (Periplaneta americana, UniProt B6E9U7). The assay is described as follows: Binding of fluorescent probe 1-NPN to PameOBP1 (saturation, Scatchard). The note with it: read-out: dissociation constant of 1-NPN for PameOBP1. The protocol:
(§1) Emission fluorescence spectra were measured on a Hitachi F-4500 fluorescence spectrophotometer following our previous studies. Firstly, dissociation constants of the PameOBPs for N-phenyl-1-naphtylamine (1-NPN) were calculated to determine the suitability of 1-NPN as a fluorescence reporter. After the determination of the reporter, the affinities of the PameOBPs for each ligand were measured using 2 μM 1-NPN as the fluorescent reporter and 0.25–2.5 μM or 2–40 μM as competitor, in at least three technical replicates. The binding data were analyzed following our previous studies.
(§2) To investigate the role of three PameOBPs in the detection of odorants, we firstly tested the binding affinity of PameOBPs to fluorescent probe 1-NPN. […] Saturation and linear Scatchard plots (Fig 5A) indicated single binding sites in the proteins with no allosteric effects. We were, therefore, able to use the fluorescence competitive binding assay to determine the binding affinities of these three PameOBPs to 87 odorants from apple, grape, peach, pear, the juice of these fruits, and beer.

Assay [2] addresses T2, PameOBP2 (Periplaneta americana, UniProt B6E9U8). Nature of the assay: Binding of fluorescent probe 1-NPN to PameOBP2 (saturation, Scatchard). As to conditions: read-out: dissociation constant of 1-NPN for PameOBP2. The protocol: as §1, §2
The target of assay [3] is T3, PameOBP3 (Periplaneta americana, UniProt B6E9U9). Nature of the assay: Binding of fluorescent probe 1-NPN to PameOBP3 (saturation, Scatchard). The note with it: read-out: dissociation constant of 1-NPN for PameOBP3. The procedure: as §1, §2
T3 sequence (B6E9U9 entry or part of it): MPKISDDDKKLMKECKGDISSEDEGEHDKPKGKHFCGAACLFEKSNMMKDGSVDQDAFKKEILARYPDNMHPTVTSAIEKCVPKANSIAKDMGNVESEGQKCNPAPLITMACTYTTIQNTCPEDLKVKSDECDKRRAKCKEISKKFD
Assay [4] addresses T1, PameOBP1. The assay is described as follows: Competitive fluorescence binding assay (1-NPN displacement), recombinant PameOBP1. The note with it: 2 μM 1-NPN as fluorescent reporter, competitor 0.25–2.5 μM or 2–40 μM. The text has this:
(§3) The PameOBPs were expressed by using Escherichia coli expression system. To generate properly folded protein, the signal peptide predicted by SignalIP 4.1 [18] was removed. The two PameOBPs were amplified by gene special primers (S1 Table) with the cDNA as the template. The purified PCR products were ligated into expression vector pGEX-4T-1 using In-Fusion® HD Cloning Kit (Clontech, Mountain View, CA) according to the manufacturer’s instructions. The recombinant plasmid was transformed into E. coli BL21 (DE3) cells, and then expression and purification was performed according to a previously reported protocol. Recombinant proteins in the supernatant were purified by an affinity chromatography column GSTrap FF (GE Healthcare, Piscataway, NJ, USA). The GST tags were cleaved from recombinant proteins using 400 μL of thrombin (1U/μL) while loaded on GSTrap FF column at 25°C for 10 h and allowed 12 h. After that, the recombinant proteins were eluted with PBS buffer. Finally, the eluted proteins were desalted using HiTrap Desalting (GE Healthcare), lyophilized, and stored at −80°C until use.
(§4) Emission fluorescence spectra were measured on a Hitachi F-4500 fluorescence spectrophotometer following our previous studies. Firstly, dissociation constants of the PameOBPs for N-phenyl-1-naphtylamine (1-NPN) were calculated to determine the suitability of 1-NPN as a fluorescence reporter. […] The binding data were analyzed following our previous studies.

The target of assay [5] is T2, PameOBP2. The assay is described as follows: Competitive fluorescence binding assay (1-NPN displacement), recombinant PameOBP2. The note with it: 2 μM 1-NPN as fluorescent reporter, competitor 0.25–2.5 μM or 2–40 μM.
Text: as §3, §4

Assay [6] concerns the target T3, PameOBP3. Nature of the assay: Competitive fluorescence binding assay (1-NPN displacement), recombinant PameOBP3.
Text: as §3, §4

Where [7] appears, read: 2 μM 1-NPN as fluorescent reporter, competitor 0.25–2.5 μM or 2–40 μM, read-out: PameOBP3 Ki.

T1 sequence (B6E9U7 entry or part of it): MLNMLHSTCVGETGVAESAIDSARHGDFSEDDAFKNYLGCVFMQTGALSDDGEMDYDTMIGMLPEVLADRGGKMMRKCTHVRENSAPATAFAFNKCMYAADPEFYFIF
T2 sequence (B6E9U8 entry or part of it): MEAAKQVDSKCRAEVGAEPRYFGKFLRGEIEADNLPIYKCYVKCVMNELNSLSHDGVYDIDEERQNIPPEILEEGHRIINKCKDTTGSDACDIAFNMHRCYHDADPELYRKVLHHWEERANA

Consider `c1ccc(Nc2cccc3ccccc23)cc1` [1-NPN, N-phenyl-1-naphtylamine], for which the Kd at PameOBP1 [1] stood at 20.5 µM; at PameOBP2 [2], 8.04 µM; at PameOBP3 [3], 24.9 µM.
Regarding `CCCCCCCCCCCCCCCCC` [heptadecane], the Ki at PameOBP1 [4] (read-out: PameOBP1 Ki), on PameOBP2 [5] (read-out: PameOBP2 Ki) and on PameOBP3 [6] (setting [7]) was over 40 µM in each case.
On to `CCCCCCCOC(C)=O` [heptyl acetate], for which the Ki on PameOBP1 [4] (read-out: PameOBP1 Ki), on PameOBP2 [5] (read-out: PameOBP2 Ki) and at PameOBP3 [6] (setting [7]) was over 40 µM throughout.
`CCCCCC=O` [hexanal]: the Ki at PameOBP1 [4] (PameOBP1 Ki), on PameOBP2 [5] (PameOBP2 Ki) and on PameOBP3 [6] was over 40 µM each time.
Consider `CCCCCCOC(=O)CCC` [hexyl butyrate], for which the Ki on PameOBP1 [4] (read-out: PameOBP1 Ki), at PameOBP2 [5] (read-out: PameOBP2 Ki) and on PameOBP3 [6] (setting [7]) was over 40 µM throughout.
As to `c1ccc2[nH]ccc2c1` [indole], the Ki on PameOBP1 [4] (PameOBP1 Ki), on PameOBP2 [5] (PameOBP2 Ki) and on PameOBP3 [6] was over 40 µM throughout.
Consider `CC(=O)OCCC(C)C` [isoamyl acetate], for which the Ki on PameOBP1 [4] (read-out: PameOBP1 Ki), on PameOBP2 [5] (read-out: PameOBP2 Ki) and at PameOBP3 [6] (setting [7]) was over 40 µM in each case.
In the case of `C=CC(C)(O)CCC=C(C)C` (stereo not drawn) [linalool], the Ki at PameOBP1 [4] (PameOBP1 Ki), at PameOBP2 [5] (PameOBP2 Ki) and at PameOBP3 [6] was over 40 µM in each case.
As to `COC(=O)c1ccccc1O` [methyl salicylate], the Ki on PameOBP1 [4] (PameOBP1 Ki), on PameOBP2 [5] (PameOBP2 Ki) and at PameOBP3 [6] was over 40 µM in each case.
With `c1ccc2ccccc2c1` [naphthalene], the Ki at PameOBP1 [4] (PameOBP1 Ki), on PameOBP2 [5] (PameOBP2 Ki) and at PameOBP3 [6] was over 40 µM in each case.
Take `CCCCCCCCCOC(C)=O` [nonyl acetate]: the Ki on PameOBP1 [4] (read-out: PameOBP1 Ki), at PameOBP2 [5] (read-out: PameOBP2 Ki) and at PameOBP3 [6] (setting [7]) was over 40 µM throughout.
For `CCCCCCCCCCCCCCCCCC` [octadecane], the Ki at PameOBP1 [4] (read-out: PameOBP1 Ki), at PameOBP2 [5] (read-out: PameOBP2 Ki) and on PameOBP3 [6] (setting [7]) was over 40 µM each time.
For the molecule `CCCCCCCCOC(C)=O` [octyl acetate], the Ki at PameOBP1 [4] (read-out: PameOBP1 Ki), on PameOBP2 [5] (read-out: PameOBP2 Ki) and at PameOBP3 [6] (setting [7]) was over 40 µM in each case.
Regarding `CCCCCOC(C)=O` [pentyl acetate], the Ki on PameOBP1 [4] (read-out: PameOBP1 Ki), on PameOBP2 [5] (read-out: PameOBP2 Ki) and on PameOBP3 [6] (setting [7]) was over 40 µM in each case.
Turning to `OCCc1ccccc1` [phenethyl alcohol], the Ki at PameOBP1 [4] (read-out: PameOBP1 Ki), on PameOBP2 [5] (read-out: PameOBP2 Ki) and at PameOBP3 [6] (setting [7]) was over 40 µM in each case.
Take `O=CCc1ccccc1` [phenylacetaldehyde]: the Ki at PameOBP1 [4] (PameOBP1 Ki), on PameOBP2 [5] (PameOBP2 Ki) and on PameOBP3 [6] was over 40 µM in each case.
As for `CCC/C=C/C=O` [trans-2-hexenal], the Ki on PameOBP1 [4] (PameOBP1 Ki), on PameOBP2 [5] (PameOBP2 Ki) and on PameOBP3 [6] was over 40 µM throughout.
With `CCC/C=C/COC(C)=O` [trans-2-hexenyl acetate], the Ki on PameOBP1 [4] (read-out: PameOBP1 Ki), on PameOBP2 [5] (read-out: PameOBP2 Ki) and on PameOBP3 [6] (setting [7]) was over 40 µM in each case.
Take `CCC/C=C/COC(=O)CCC` [trans-2-hexenyl butyrate]: the Ki on PameOBP1 [4] (read-out: PameOBP1 Ki), at PameOBP2 [5] (read-out: PameOBP2 Ki) and on PameOBP3 [6] (setting [7]) was over 40 µM in each case.
As to `CCCCCCCCCCCCC` [tridecane], the Ki on PameOBP1 [4] (read-out: PameOBP1 Ki), on PameOBP2 [5] (read-out: PameOBP2 Ki) and at PameOBP3 [6] (setting [7]) was over 40 µM throughout.
On to `CCCCCCCCCCC=O` [undecanal], for which the Ki at PameOBP1 [4] (read-out: PameOBP1 Ki), on PameOBP2 [5] (read-out: PameOBP2 Ki) and on PameOBP3 [6] (setting [7]) was over 40 µM in each case.
For `CCCCCCCCCCC` [undecane], the Ki at PameOBP1 [4] (read-out: PameOBP1 Ki), on PameOBP2 [5] (read-out: PameOBP2 Ki) and at PameOBP3 [6] (setting [7]) was over 40 µM each time.
